Measured values taken from patent US4398937A, “Selective algaecides for control of cyanochloronta” (The University of Southern Mississippi, priority 1981, dated 1983).

Experiments:
Fish (adult catfish) = assay: Field Experiment II, taste and odor of fish; assay type: in vivo; settings: for Fish Odor / Fish Taste: 2 ppm on 5/26/81
Haematococcus = assay: Selective effect on algae in test tubes (Table V), Haematococcus; assay type: cell-based; settings: for cells/ml: 13 days after innoculation, average of 3 samples
Experimental: (§1) Another laboratory experiment was run to further substantiate the selective effect of one of the algaecides, potassium ricinoleate. Two species of blue-green algae, Lyngbya and Cylindrospermum, and three species of green algae, Chlorella, Haematococcus and Stigeoclonium and Tribonema, a yellow-green alga of the division Chrysophycophyta, were treated as follows: Twenty ml test tubes of sterile BBM culture solution were innoculated with each alga. All species of algae were evaluated with three groups, control, 2.5 ppm algaecide and 7.5 ppm algaecide. Each group was run with triplicate samples.
(§2) Controls were counted 6 days after innoculation, algaecide was added to the treatment groups seven days after innoculation and all test tubes were counted thirteen days after innoculation. The results are shown in Table V. After seven days, there was a 31% reduction in the Lyngbya cultures at 2.5 ppm algaecide and a 40% reduction at 7.5 ppm. After seven days, there was a 60% reduction in Cylindrospermum cultures at 2.5 ppm algaecide and a 72% reduction at 7.5 ppm. […] After thirteen days, there was a 55% reduction in numbers at both 2.5 ppm and 7.5 ppm. After twenty days there was a 27% reduction at both concentrations. […] They are, like blue-green algae, often associated with taste and odor problems.

[1] = in vivo
Cylindrospermum = assay: Selective effect on algae in test tubes (Table V), Cylindrospermum; assay type: cell-based; settings: for cells/ml: 13 days after innoculation, average of 3 samples
Experimental: as §1, §2

blue-green algae = assay: Field Experiment III, pond, blue-green algae; assay type: in vivo, blue-green algae (Oscillatoria and Microcystis); settings: 2 ppm on 6/9/81
Experimental: (§3) In Field Experiment III, a small two acre pond was monitored for a complete year for plankton organisms as before. Oscillatoria and Microcystis were usually the prevalent blue-green algae. On 6/9/81 the pond was experiencing a bloom consisting completely of Oscillatoria. Channel catfish from the ponds had the characteristic earthy, musty taste and odor of 4 and 4 respectively on the 0 to 5 scale. The pond was treated on this date with 2 ppm potassium ricinoleate, one of the selective algaecides, as before.

bluegill fingerlings = assay: Toxicity to bluegill fingerlings; assay type: in vivo; settings: 5, 10, 15, 20, 30 and 35 ppm
Experimental: An additional experiment was conducted on live bluegill fingerlings at 5, 10, 15, 20, 30 and 35 ppm of the algaecide.

[2] = tested on: blue-green algae (Microcystis and Oscillatoria); assay: Sewage treatment test 2, dense bloom of blue-green algae; settings: ten days after treatment
Text: Ten days after treatment aeration was stopped and cell debris was allowed to settle.

[3] = Field Experiment I, total organism dry weight; assay type: in vivo; settings: 10 ppm
Experimental: (§4) 1, 1980, to Mar. 19, 1981.
(§5) On July 30, 1980, most ponds had numbers of blue-green algae exceeding 2×10^6 cells/liter. These algae were predominantly Oscillatoria,Microcystis and Anacystis with smaller numbers of Nostoc, Anabaena and Lyngbya. The experimental pond had 1.2×10^6 cells/liter composed mainly of Microcystis sp. Large numbers of copepods and rotifers were present. On July 30, the pond was treated with 10 ppm potassium ricinoleate by distributing a 30% aqueous solution evenly through the water column by pump from a small boat. […] This is further substantiated by the dry weights and chlorophyll a levels.

green algae [4] = assay: Field Experiment III, pond, green algae; assay type: in vivo; settings: 2 ppm on 6/9/81
Experimental: as §3

catfish fingerlings = assay: Toxicity to catfish fingerlings in aquaria; assay type: in vivo
Experimental: For any algaecide to be useful in aquaculture, it must be without harmful effects on fish populations in ponds to be treated. Experiments to determine the effects of potassium ricinoleate on fish were performed in two 250 gallon aquaria using various concentrations of the algaecide. Batches of 25 live 5 in. catfish fingerlings were treated with 5, 10, 15, 20, 30, 35 and 100 ppm algaecide and observed for 48 hours.

Tribonema = assay: Selective effect on algae in test tubes (Table V), Tribonema; assay type: cell-based; settings: for cells/ml: average of 3 samples
Experimental: as §1, §2

Chlorophyll a = assay: Field Experiment I, chlorophyll a; assay type: in vivo; settings: 10 ppm
Experimental: as §4, §5

[5] = Field Experiment II, taste and odor of water; assay type: in vivo; settings: 2 ppm on 5/26/81
green algae [6] = assay: Field Experiment I, catfish pond, green algae and other phytoplankton; assay type: in vivo; settings: 10 ppm
Experimental: as §4, §5

[7] = scale 0 to 5 (5 worst, 0 undetectable), 6/1/81
[8] = 168 h, read-out: reduction in cultures
[9] = 7/31 post-treatment (treated July 30, 1980)
[10] = 11/21 post-treatment (normal winter reduction)

For CCCCCC[C@@H](O)C/C=C\CCCCCCCC(=O)[O-].[K+], the “Fish Odor” value (Fish (adult catfish); [7]) was 2, the “Fish Taste” value (Fish (adult catfish); [7]) was 3 and the “Fish Odor” value (Fish (adult catfish); scale 0 to 5, 6/5/81) was 1. For the same molecule, the “Fish Taste” value (Fish (adult catfish); scale 0 to 5, 6/5/81) was 2, the “Fish Odor” value (Fish (adult catfish); scale 0 to 5, 6/12/81) was 1 and the “Fish Taste” value (Fish (adult catfish); scale 0 to 5, 6/12/81) was 1. For the same molecule, the “Fish Odor” value (Fish (adult catfish); scale 0 to 5, 6/15/81) was 0, the “Fish Taste” value (Fish (adult catfish); scale 0 to 5, 6/15/81) was 0 and the “earthy musty taste and odor of fish” value (Fish (adult catfish); 2 ppm, over a three week period) was “eliminated”. The “effect” value (Haematococcus; 2.5 and 7.5 ppm, after seven days) was “stimulated”, the cells/ml (Haematococcus; 2.5 ppm) was 23000 cells/ml and the cells/ml (Haematococcus; 7.5 ppm) was 52000 cells/ml. For the same molecule, the “taste or odor of cooked fish” value (juvenile channel catfish; 10 ppm, samples February through June, 1981) was “no taste or odor problems”, the “health of juvenile catfish” value (juvenile channel catfish; in vivo) was “fed and otherwise appeared healthy” and the “oxygen depletion problems” value [1] was “no oxygen depletion problems noted”. For the same molecule, the cells/ml (Cylindrospermum; 2.5 ppm) was 2500 cells/ml, the cells/ml (Cylindrospermum; 7.5 ppm) was 1770 cells/ml and the inhibition of growth at 2.5 ppm (Cylindrospermum; [8]) was 60%. For the same molecule, the inhibition of growth at 7.5 ppm (Cylindrospermum; [8]) was 72%, the Cells/liter bluegreen algae (blue-green algae; 6/10/81, prevalent Osc, Mic) was 2.8 × 10^6 Cells/liter and the Cells/liter bluegreen algae (blue-green algae; 6/12/81, prevalent Osc) was 1.3 × 10^6 Cells/liter. For the same molecule, the Cells/liter bluegreen algae (blue-green algae; 6/22/81, prevalent Ped) was 1.2 × 10^4 Cells/liter, the “predominant alga after treatment” value (blue-green algae; June 22) was “Pediastrum with isolated fragments of Oscillatoria filaments” and the “fish survival” value (bluegill fingerlings) was “All bluegills survived”. The cells/liter ([2]; 2.5 ppm) was 8.3 × 10^5 cells/liter, the cells/liter ([2]; 5.0 ppm) was 7.9 × 10^5 cells/liter and the cells/liter ([2]; 10.0 ppm) was 6.6 × 10^5 cells/liter. The cells/liter ([2]; 15.0 ppm) was 4.4 × 10^5 cells/liter, the “state of enumerated suspended cells” value [2] was “appeared dead” and the “Dry Wgts” value [3, 9] was 2.19 Gm/Liter. The “Dry Wgts” value ([3]; 8/1 post-treatment) was 4.45 Gm/Liter, the “Dry Wgts” value ([3]; 8/6 post-treatment) was 17.90 Gm/Liter and the “Dry Wgts” value ([3]; 8/19 post-treatment) was 5.34 Gm/Liter. For the same molecule, the “Dry Wgts” value ([3]; 9/6 post-treatment) was 20.69 Gm/Liter, the “Dry Wgts” value ([3]; 9/23 post-treatment) was 9.06 Gm/Liter and the “Dry Wgts” value [3, 10] was 1.03 Gm/Liter. The “Dry Wgts” value ([3]; 12/14 post-treatment) was 4.84 Gm/Liter, the Cells/liter green algae (green algae [4]; 6/10/81) was 3.0 × 10^3 Cells/liter and the Cells/liter green algae (green algae [4]; 6/12/81) was 1.4 × 10^3 Cells/liter. For the same molecule, the Cells/liter green algae (green algae [4]; 6/22/81) was 3.5 × 10^5 Cells/liter, the “fish survival” value (catfish fingerlings; 35 ppm and lower, observed for 48 hours) was “All fish survived” and the “fish mortality” value (catfish fingerlings; 100 ppm, at 12 hours) was “All fish had died”. For the same molecule, the cells/ml (Tribonema; 2.5 ppm, 13 days after innoculation) was 5885 cells/ml, the cells/ml (Tribonema; 2.5 ppm, 20 days after innoculation) was 10510 cells/ml and the cells/ml (Tribonema; 7.5 ppm, 13 days after innoculation) was 5335 cells/ml. The cells/ml (Tribonema; 7.5 ppm, 20 days after innoculation) was 10295 cells/ml, the reduction in numbers (Tribonema; both 2.5 ppm and 7.5 ppm, after thirteen days) was 55% and the reduction in numbers (Tribonema; both concentrations (2.5 and 7.5 ppm), after twenty days) was 27%. For the same molecule, the Chlorophyll a (Chlorophyll a; [9]) was “.000 absorbance at 663 nm”, the Chlorophyll a (Chlorophyll a; 8/1 post-treatment) was “.064 absorbance at 663 nm” and the Chlorophyll a (Chlorophyll a; 8/6 post-treatment) was “.000 absorbance at 663 nm”. The Chlorophyll a (Chlorophyll a; 8/19 post-treatment) was “.002 absorbance at 663 nm”, the Chlorophyll a (Chlorophyll a; 9/6 post-treatment) was “.240 absorbance at 663 nm” and the “Water Odor” value [5, 7] was 0. The “Water Taste” value [5, 7] was 1, the “Water Odor” value ([5]; scale 0 to 5, 6/5/81) was 0 and the “Water Taste” value ([5]; scale 0 to 5, 6/5/81) was 1. For the same molecule, the “Water Odor” value ([5]; scale 0 to 5, 6/12/81) was 0, the “Water Taste” value ([5]; scale 0 to 5, 6/12/81) was 0 and the “Water Odor” value ([5]; scale 0 to 5, 6/15/81) was 0. The “Water Taste” value ([5]; scale 0 to 5, 6/15/81) was 0, the “Cells/Liter of green algae” value (green algae [6]; [9]) was 6.2 × 10^4 Cells/Liter and the “Cells/Liter of green algae” value (green algae [6]; 8/1 post-treatment) was 5.0 × 10^4 Cells/Liter. For the same molecule, the “Cells/Liter of green algae” value (green algae [6]; 8/6 post-treatment) was 2.1 × 10^4 Cells/Liter, the “Cells/Liter of green algae” value (green algae [6]; 8/19 post-treatment) was 0 Cells/Liter and the “Cells/Liter of green algae” value (green algae [6]; 9/6 post-treatment) was 1.7 × 10^4 Cells/Liter. The “Cells/Liter of green algae” value (green algae [6]; 9/23 post-treatment) was 4.5 × 10^5 Cells/Liter, the “Cells/Liter of green algae” value (green algae [6]; [10]) was 2.5 × 10^3 Cells/Liter and the “Cells/Liter of green algae” value (green algae [6]; 12/14 post-treatment) was 0 Cells/Liter. For the same molecule, the “numbers of other phytoplankton” value (green algae [6]; seven days after treatment) was “essentially unchanged or increased in numbers”.
